Conditions: for mass density: Vibrating tube method; for vapor or sublimation pressure: Closed cell (Static) method; for viscosity: Capillary tube (Ostwald / Ubbelohde) method; for surface tension liquid-gas: Capillary rise

FC(F)(F)/C=C/Cl [(E)-1-chloro-3,3,3-trifluoroprop-1-ene]
Conditions | Critical temperature [K] | mass density [kg/m3] | vapor or sublimation pressure [kPa]
243.34 K, Liquid | – | 1384.7 | –
243.7 K, Liquid | – | 1383.98 | –
248.07 K, Liquid | – | 1371.38 | –
251.12 K, Liquid | – | 1367.4 | –
253.56 K, Liquid | – | 1362.51 | –
255.66 K, Liquid | – | 1360.3 | –
263.09 K, Liquid | – | – | 29.85
263.36 K, Liquid | – | 1341.34 | –
271.16 K, Liquid | – | 1323.65 | –
272.95 K, Liquid | – | – | 44.51
273.1 K, Liquid | – | – | 47.57
273.17 K, Liquid | – | 1319.65 | –
282.95 K, Liquid | – | – | 71.41
283.08 K, Liquid | – | – | 72.74
283.26 K, Liquid | – | 1296.48 | –
290.16 K, Liquid | – | 1280.22 | –
291.98 K, Liquid | – | 1276.01 | –
293.05 K, Liquid | – | – | 107.99
293.08 K, Liquid | – | – | 106.52
293.21 K, Liquid | – | 1273.37 | –
302.85 K, Liquid | – | – | 148.21
303.01 K, Liquid | – | – | 152.1
312.25 K, Liquid | – | – | 203.33
312.93 K, Liquid | – | – | 210.08
321.85 K, Liquid | – | – | 279.37
323 K, Liquid | – | – | 282.13
332.93 K, Liquid | – | – | 382.66
342.92 K, Liquid | – | – | 502.28
352.84 K, Liquid | – | – | 641.35
Liquid, Visual observation in an unstirred cell | 438.75 | – | –

Liquid
Conditions | viscosity [mPa·s]
270.24 K, 100 kPa | 0.705
292.03 K, 150 kPa | 0.506
314.25 K, 300 kPa | 0.3851
336.37 K, 500 kPa | 0.294
353.52 K, 800 kPa | 0.2369
379.56 K, 1350 kPa | 0.1763

Conditions | surface tension liquid-gas [mN/m]
273.15 K | 16.48
298.15 K | 12.68
323.15 K | 9.01
